The target of the assay is T1, purified human IDO protein (Homo sapiens, UniProt P14902).
T1 construct: 2 extra amino acids (linker from the BglII cloning site of pQE70); made in house; host or cells: E. coli M15(pREP4) with plasmid pQE70-hIDO
The assay can be described thus: Enzymatic IDO assay (kynurenine production, absorbance at 480 nm). It is filed as biochemical. The settings on record: recombinant human IDO; values reported in ranges; read-out: hIDO IC50. The procedure:
The inhibitors were initially diluted in DMSO at 100 mM and were diluted in potassium phosphate 50 mM, added to the reaction mixture at final concentrations raging from 1 mM to 5 nM and preincubated with the enzyme for 5 min at 25° C. The reaction was started by addition of L-tryptophan to 200 μM and incubated 15 min at 37° C. The reaction was stopped by addition of 0.5 vol of 30% trichloroacetic acid and incubated 30 min at 60° C. to hydrolyze N-formylkynurenine to kynurenine. The reaction was centrifuged at 3400 g for 5 min to remove precipitated protein and the supernatant was reacted with 2% (w/v) of p-dimethylaminobenzaldehyde in acetic acid. The reaction was incubated 10 min at 25° C. and read at 480 nm in a spectrophotometer. […] Nonlinear regressions and determination of the IC50 values were performed using the GraphPad Prism 4 software.

T1 sequence (P14902 whole entry P110S/E119G): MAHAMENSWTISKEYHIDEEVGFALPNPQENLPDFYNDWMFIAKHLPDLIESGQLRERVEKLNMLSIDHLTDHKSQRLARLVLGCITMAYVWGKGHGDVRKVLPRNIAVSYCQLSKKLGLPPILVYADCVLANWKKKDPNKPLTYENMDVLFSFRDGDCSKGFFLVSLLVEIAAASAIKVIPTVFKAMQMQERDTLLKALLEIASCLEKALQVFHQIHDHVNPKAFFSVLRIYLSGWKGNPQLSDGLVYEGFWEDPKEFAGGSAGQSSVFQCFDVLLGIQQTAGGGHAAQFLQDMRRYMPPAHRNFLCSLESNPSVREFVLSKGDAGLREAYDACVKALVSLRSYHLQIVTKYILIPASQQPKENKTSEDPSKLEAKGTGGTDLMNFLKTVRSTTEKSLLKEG

On to `O=C(Cc1cccs1)N1CCC(CCOc2ccccc2-c2c[nH]cn2)CC1` [compound 1176, 1-(4-(2-(2-(1H-imidazol-4-yl)phenoxy)ethyl)piperidin-1-yl)-2-(thiophen-2-yl)ethanone], for which the half-maximal inhibitory concentration (IC50) fell in the range of 1 to 10 µM.

`O=C(Cc1ccccc1)Nc1ccc(CCOc2ccccc2-c2c[nH]cn2)cn1` [compound 1228, N-(5-(2-(2-(1H-imidazol-4-yl)phenoxy)ethyl)pyridin-2-yl)-2-phenylacetamide]: the IC50 lay in the range of 1 to 10 µM.

`FC(F)(F)c1ccc(COc2ccccc2-c2c[nH]cn2)cc1` [compound 1023, 4-(2-(4-(trifluoromethyl)benzyloxy)phenyl)-1H-imidazole]: the IC50 was above 100 µM.

As for `O=C(Nc1ccc(CCOc2ccccc2-c2c[nH]cn2)c(Cl)c1)C1CCCCN1` (stereo not drawn) [compound 1344, N-(4-(2-(2-(1H-imidazol-4-yl)phenoxy)ethyl)-3-chlorophenyl)piperidine-2-carboxamide], the IC50 is 1 to 10 µM.

In the case of `O=C(Cc1cscn1)Nc1ccc(CCOc2ccccc2-c2c[nH]cn2)cc1` [compound 1226, N-(4-(2-(2-(1H-imidazol-4-yl)phenoxy)ethyl)phenyl)-2-(thiazol-4-yl)acetamide], the IC50 was 1 to 10 µM.

In the case of `Nc1ccc(CC(=O)Nc2ccc(CCOc3ccccc3-c3c[nH]cn3)cc2)cc1` [compound 1250, N-(4-(2-(2-(1H-imidazol-4-yl)phenoxy)ethyl)phenyl)-2-(4-aminophenyl)acetamide], the IC50 was in the range of 1 to 10 µM.

As to `COc1ccccc1-c1cnco1` [compound 945, 5-(2-methoxyphenyl)oxazole], the IC50 was above 100 µM.

`CC(Oc1ccccc1-c1c[nH]cn1)c1ccc(Cl)cc1` (stereo not drawn) [compound 1024, 4-(2-(1-(4-chlorophenyl)ethoxy)phenyl)-1H-imidazole]: the IC50 fell in the range of 10 to 100 µM.

Regarding `Nn1cncc1-c1ccccc1` [compound 1115, 5-phenyl-1H-imidazol-1-amine], the IC50 is above 100 µM.

In the case of `c1cc(-c2c[nH]cn2)c2[nH]ccc2c1` [compound 948, 7-(1H-imidazol-4-yl)-1H-indole], the IC50 was in the range of 10 to 100 µM.

In the case of `Oc1ccc(Cl)c(OCCC2CCCCC2)c1-c1cnc[nH]1` [compound 1172, 4-chloro-3-(2-cyclohexylethoxy)-2-(1H-imidazol-5-yl)phenol], the IC50 lay within 1 to 10 µM.

Turning to `CC(C)(C)C(=O)Nc1ccc(CCOc2ccccc2-c2c[nH]cn2)cc1` [compound 1101, N-(4-(2-(2-(1H-imidazol-4-yl)phenoxy)ethyl)phenyl)pivalamide], the concentration for half-maximal inhibition (IC50) lay in the range of 1 to 10 µM.

Turning to `COc1cccc(-c2c[nH]cn2)n1` [compound 1009, 2-(1H-imidazol-4-yl)-6-methoxypyridine], the IC50 is above 100 µM.

With `CC(=O)NC(C(=O)Nc1ccc(CCOc2ccccc2-c2c[nH]cn2)c(Cl)c1)C1CCOCC1` (stereo not drawn) [compound 1337, N-(4-(2-(2-(1H-imidazol-4-yl)phenoxy)ethyl)-3-chlorophenyl)-2-acetamido-2-(tetrahydro-2H-pyran-4-yl)acetamide], the IC50 was below 1 µM.

On to `CC(C)(C)CC(=O)Nc1ccc(CCOc2ccccc2-c2c[nH]cn2)cc1` [compound 1103, N-(4-(2-(2-(1H-imidazol-4-yl)phenoxy)ethyl)phenyl)-3,3-dimethylbutanamide], for which the IC50 was 1 to 10 µM.

For the compound `Oc1cccc(OCCC2CCCO2)c1-c1cnc[nH]1` (stereo not drawn) [compound 1235, 2-(1H-imidazol-5-yl)-3-(2-(tetrahydrofuran-2-yl)ethoxy)phenol], the IC50 fell in the range of 10 to 100 µM.

`c1cc(-c2c[nH]cn2)c2nsnc2c1` [compound 962, 4-(1H-imidazol-4-yl)benzo[c][1,2,5]thiadiazole]: the concentration for half-maximal inhibition (IC50) was 10 to 100 µM.

With `O=C(Cc1cncnc1)Nc1ccc(CCOc2ccccc2-c2c[nH]cn2)c(Cl)c1` [compound 1366, N-(4-(2-(2-(1H-imidazol-4-yl)phenoxy)ethyl)-3-chlorophenyl)-2-(pyrimidin-5-yl)acetamide], the IC50 was below 1 µM.

Take `COc1cccc2c1-c1cncn1C2` [compound 1013, 9-methoxy-5H-imidazo[5,1-a]isoindole]: the IC50 lay in the range of 10 to 100 µM.

On to `Oc1c(Cl)cc(Cl)c(OCCc2ccccc2Cl)c1-c1cnc[nH]1` [compound 1111, 4,6-dichloro-3-(2-chlorophenethoxy)-2-(1H-imidazol-5-yl)phenol], for which the IC50 lay in the range of 10 to 100 µM.

Consider `c1ccc(-c2c[nH]cn2)c(OCCc2ccc(N3CCCCC3)cc2)c1` [compound 1223, 1-(4-(2-(2-(1H-imidazol-4-yl)phenoxy)ethyl)phenyl)piperidine], for which the IC50 was 10 to 100 µM.

Take `CC(=O)N(Cc1ccccc1)Cc1cccc(COc2ccccc2-c2c[nH]cn2)c1` [compound 959, N-(3-((2-(1H-imidazol-4-yl)phenoxy)methyl)benzyl)-N-benzylacetamide]: the IC50 was 10 to 100 µM.

For the compound `CNC(=O)c1ccccc1CCOc1ccccc1-c1c[nH]cn1` [compound 1332, 2-(2-(2-(1H-imidazol-4-yl)phenoxy)ethyl)-N-methylbenzamide], the IC50 was above 100 µM.

Regarding `c1ccc(-c2c[nH]cn2)c(OCCN2CCOCC2)c1` [compound 1236, 4-(2-(2-(1H-imidazol-4-yl)phenoxy)ethyl) morpholine], the IC50 was above 100 µM.

With `c1ccc2c(-c3c[nH]cn3)cncc2c1` [compound 1004, 4-(1H-imidazol-4-yl)isoquinoline], the IC50 is above 100 µM.

`O=C(Cc1cccs1)Nc1ccc(CCOc2ccccc2-c2c[nH]cn2)cc1` [compound 1154, N-(4-(2-(2-(1H-imidazol-4-yl)phenoxy)ethyl)phenyl)-2-(thiophen-2-yl)acetamide]: the IC50 lay in the range of 1 to 10 µM.

For the compound `c1ccc(-c2c[nH]cn2)c(OCCc2ccc(-c3ccsc3)cc2)c1` [compound 1201, 4-(2-(4-(thiophen-3-yl)phenethoxy)phenyl)-1H-imidazole], the IC50 lay within 10 to 100 µM.

Consider `O=C(O)c1ccccc1C(=O)COc1ccccc1-c1c[nH]cn1` [compound 979, 2-(2-(2-(1H-imidazol-4-yl)phenoxy)acetyl) benzoic acid], for which the IC50 is above 100 µM.

`COC(=O)c1ccccc1CCOc1ccccc1-c1c[nH]cn1` [compound 934, methyl 2-(2-(2-(1H-imidazol-4-yl)phenoxy)ethyl) benzoate]: the IC50 is above 100 µM.

Turning to `Oc1c(-c2cnc[nH]2)[nH]c2ccccc12` [compound 1048, 2-(1H-imidazol-5-yl)-1H-indol-3-ol], the IC50 is above 100 µM.

Consider `O=C(Nc1ccccc1)Nc1ccc(CCOc2ccccc2-c2c[nH]cn2)c(Cl)c1` [compound 1347, 1-(4-(2-(2-(1H-imidazol-4-yl)phenoxy)ethyl)-3-chlorophenyl)-3-phenylurea], for which the IC50 was below 1 µM.

As for `O=C(CC1CCOCC1)Nc1ccc(CCOc2ccccc2-c2c[nH]cn2)cc1Cl` [compound 1297, N-(4-(2-(2-(1H-imidazol-4-yl)phenoxy)ethyl)-2-chlorophenyl)-2-(tetrahydro-2H-pyran-4-yl)acetamide], the IC50 fell in the range of 10 to 100 µM.

As for `Brc1ccc(OCCC2CCCCC2)c(-c2c[nH]cn2)c1` [compound 1016, 4-(5-bromo-2-(2-cyclohexylethoxy)phenyl)-1H-imidazole], the IC50 lay within 10 to 100 µM.

For the compound `O=C(Oc1ccc(Cl)cc1-c1c[nH]cn1)N1CCCC1` [compound 1087, 4-chloro-2-(1H-imidazol-4-yl)phenyl pyrrolidine-1-carboxylate], the IC50 was above 100 µM.

Consider `N[C@@H]1CCCC[C@H]1NC(=O)Nc1ccc(CCOc2ccccc2-c2c[nH]cn2)c(Cl)c1` (racemic) [compound 1361, 1-(4-(2-(2-(1H-imidazol-4-yl)phenoxy)ethyl)-3-chlorophenyl)-3-(±(1R,2R)-2-aminocyclohexyl)urea], for which the IC50 was below 1 µM.

For `CC(=O)NCc1ccccc1-c1c[nH]cn1` [compound 1207, N-(2-(1H-imidazol-4-yl)benzyl)acetamide], the IC50 is above 100 µM.

With `O=C(O)c1ccc(COc2ccccc2-c2c[nH]cn2)cc1` [compound 1032, lithium 4-((2-(1H-imidazol-4-yl)phenoxy)methyl) benzoate], the IC50 was 10 to 100 µM.

Take `c1ccc2oc(-c3c[nH]cn3)cc2c1` [compound 1026, 4-(benzofuran-2-yl)-1H-imidazole]: the IC50 is above 100 µM.

Turning to `COc1ncccc1-c1c[nH]cn1` [compound 1012, 3-(1H-imidazol-4-yl)-2-methoxypyridine], the IC50 was above 100 µM.

For the compound `c1cc(-c2c[nH]cn2)ccn1` [compound 982, 4-(1H-imidazol-4-yl)pyridine], the half-inhibitory concentration (IC50) is above 100 µM.

On to `FC(F)(F)c1ccccc1CCOc1ccccc1-c1c[nH]cn1` [compound 1040, 4-(2-(2-(trifluoromethyl)phenethoxy)phenyl)-1H-imidazole], for which the IC50 was 1 to 10 µM.

For `O=C(Cc1cncnc1)Nc1ccc(CCOc2ccccc2-c2c[nH]cn2)cc1` [compound 1239, N-(4-(2-(2-(1H-imidazol-4-yl)phenoxy)ethyl)phenyl)-2-(pyrimidin-5-yl)acetamide], the half-inhibitory concentration (IC50) was 1 to 10 µM.

On to `CC(=O)Nc1ccccc1-c1c[nH]cn1` [compound 1121, N-(2-(1H-imidazol-4-yl)phenyl)acetamide], for which the IC50 is above 100 µM.

In the case of `CC(Cc1ccccc1Cl)Oc1ccccc1-c1c[nH]cn1` (stereo not drawn) [compound 1043, 4-(2-(1-(2-chlorophenyl)propan-2-yloxy)phen-yl)-1H-imidazole], the half-maximal inhibitory concentration (IC50) is 1 to 10 µM.

Take `O=C(O)c1ccccc1CCOc1ccccc1-c1c[nH]cn1` [compound 1325, 2-(2-(2-(1H-imidazol-4-yl)phenoxy)ethyl) benzoic acid]: the IC50 is above 100 µM.
